Assay results from patent publication US20100098670A1, “Autologous dental pulp stem cell-based bone graft substitute” (Cerapedics Inc., priority 2007, published 2010).
“Also recorded” adds a separate entry of the source. Ends that are not written are not given here.

Experiments:
[1] = system: human dental pulp explants; assay: Cell outgrowth from human dental pulp explants cultured with scaffolds (live/dead markers, confocal microscopy, SEM); assay type: cell-based; details: fluorescence, confocal or SEM images
Method: (§1) The HDPSCs were isolated from human dental pulp tissues and cultured on ABM and ABM-P-15 scaffolds in media. The cultured cells on the scaffolds were analysed by live/dead fluorescent markers, histological staining (ALP, Alizalin Red, Toluidine blue), confocal microscopy and scanning electron microscopy. The effect of P-15 on HDPSCs BMP-2 production was confirmed by a well developed promyoblast induction assay via co-culturing of C2C12 promyoblasts and HDPSCs on ABM or ABM-P-15. […] Cell outgrowth from the explants was assessed by live/dead fluorescent markers, histological staining (ALP), confocal microscope and scanning electron microscopy.
Teeth were obtained with patients' informed consent following project approval by the NHS local ethical committee (COREC: 06/Q1206/165). Human dental pulp was extracted from sound intact teeth, which had been surgically removed at the Leeds Dental Institute for clinical reasons. Each tooth was washed within a Class II hood and cracked in a bench vice. The dental pulp tissues were harvested and washed with 1×PBS and minced into small pieces (1×2×2 mm^3) which were kept in the PBS and ready for use.
PepGen P-15 (ABM-P15) and/or Osteo-Graf/N-300 (ABM alone) were provided by Cerapedics Inc. (Lakewood, Colo.) in a particulate form. 50 mg of ABM-P-15 and ABM alone were transferred into the 48 well plates and sterilized under UV radiation for 30 minutes. […]

[2] = system: HDPSCs; assay: ALP and toluidine blue staining of HDPSCs cultured on scaffolds; assay type: cell-based, human; details: isolated HDPSCs on scaffolds
Method: as §1

## GTPGPQGIAGQRGVV [P-15, collagen mimetic, 15 amino acid residues of the α1(I) chain of collagen]
[1]; 50 mg scaffold, basal media
  outgrowth of HDPSCs from dental pulp explants: enhanced the outgrowth
[1]; explant culture
  cell bridge formation between adjacent scaffold particles: promoted cell bridge formation
[2]
  HDPSCs differentiation along the osteogenic lineage (ALP expression): promoted the HDPSCs differentiation along the osteogenic lineage; also recorded: promoted HDPSCs differentiation along the osteogenic lineage
